Assays:
Mel 202 cells [1] = test: Cell cycle analysis by flow cytometry (propidium iodide); type: cell-based; conditions: Mel 202 cells harvested after treatment; SN38 25 nM; free (not on nanoparticles)
Description: The samples were trypsinized (BioWest) and fixed with paraformaldehyde 1 % (v/v). The samples were stained for 3 h with 10 µ g/sample RNAsa A from Thermo Scientific and 20 µ g/sample propidium iodide from Sigma. The cell cycle analysis was performed in a Beckman coulter Cytomics 500 Flow cytometer and acquired data were analyzed with the Multicycle software.
These experiments were performed in cytometry service of Biotechnology National Centre of Spain.

Mel 202 cells [2] = test: alamarBlue cell viability assay; type: cell-based; conditions: Mel202, SN38 incubated 24 h, alamarBlue after additional 24 h
Description: Mel 202 cells were cultured in RPMI medium with 10 % fetal bovine serum (FBS), 1 % […]-Penicillin and 1 % L-Glutamine at 37 °C in an incubator. All the procedures were performed inside a laminar flow hood Telstar CV-30/70. Cells were grown in 24 wells plates (30000 cells).
stock solution of Resazurin sodium salt (1 mg/ml) in PBS was diluted 1 % (v/v) in complete RPMI. After incubation 3 h with the cells, the fluorescence was measured in a plate reader Synergy H4 Hybrid reader (BioTEK). Excitation (Ex) 550 nm; Emission (Em) 590 nm.
50 µl OptiMem was mixed with oligonucleotides (14, 15, 16, 17) or DNA mix 1. Then, it was mixed with 1 µl Lipofectamine 2000 in 50 µl optiMEM. The final mixture was incubated for 20 min and then 100 µl was added to cells. The final concentration of 14, 15, 16, 17 or DNA mix 1 was 140 nM. After 24 h the cells were washed 3 times with saline phosphate buffer (PBS) and complete medium was added.
SN38 stock solution was prepared at 100 µM in DMSO. Then different concentrations of SN38 (100 nM, 50 nM, 25 nM) were prepared in complete medium. It was incubated 24 h with the cells, then washed with PBS. After additional 24 h, the alamarBlue assay was carried out. […]
A volume of 100 µ L functionalized AuNPs were added in optiMEM (500 µ L total volume). The cells were incubated for 24 h, washed with PBS and the viability assessed.

CCc1c2c(nc3ccc(O)cc13)-c1cc3c(c(=O)n1C2)COC(=O)[C@]3(O)CC [SN38, 7-ethyl-10-hidroxycamptothecin]
effect on the cell cycle (Mel 202 cells [1]): significantly increases G2/M
IC50 (Mel 202 cells [2]): 100 nM
